A short description of the series: Water solubility at room temperature (shake 5 hours, filtered supernatant, HPLC with calibration curve). In kind it is physicochemical. The note with it: shaken 5 hours. On the procedure:
An adequate amount of each sample was taken. Water (50% v/v) was added to each sample, and the mixture was shaken at room temperature for 5 hours. The supernatant was filtered through a filter, and diluted with a mixed solution of water 0.1% TFA/acetonitrile as necessary to give a sample solution. The concentration (mg/ml) of the sample solution was measured by high performance liquid chromatography (HPLC) with a calibration curve method, and taken as the solubility in water at room temperature.
HPLC Analysis Conditions:
HPLC purifications and analyses were carried out using an LC200 series Perkin Elmer apparatus, and diode array UV detector, using an Ultrasep C18 RP 100 column from Bischoff Chromatography.

For the substance “5alpha-Hydroxy-6beta-[2-(1H-imidazol-4-yl)ethylamino]cholestan-3beta-ol, acetate [Example 14]”, the “Solubility in water at room temperature” value worked out at 4500 µg/mL. Turning to “5alpha-Hydroxy-6beta-[2-(1H-imidazol-4-yl)ethylamino]cholestan-3beta-ol, mesylate [Example 13]”, the “Solubility in water at room temperature” value turned out to be 11000 µg/mL. The value for “5alpha-Hydroxy-6beta-[2-(1H-imidazol-4-yl)ethylamino]cholestan-3beta-ol, pamoate [Example 7]” was 1400 µg/mL.

For the origin of these results see patent publication US20140274984A1, “ACID ADDITION SALTS OF 5ALPHA-HYDROXY-6BETA-[2-(1H-IMIDAZOL-4-YL)ETHYLAMINO]CHOLESTAN-3BETA-OL” (INSERM (INSTITUT NATIONAL DE LA SANTÉ ET DE LA RECHERE …, priority 2011, published 2014).
